Results: patent publication US20220402916A1, “SMALL MOLECULE INHIBITORS OF KRAS G12C MUTANT” (Merck Sharp & Dohme Corp., priority 2019, published 2022)
Read-outs that look alike come from different tables or passages of the source.

Tests used:
[1] = system: NCI-H358 cells; assay: Cellular phospho-ERK assay; type: cell-based
In short: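 15,000 cells/well seeded overnight, then dose-response compound treatment for 2 h at 37 °C in RPMI medium. Lysed and read by AlphaLISA SureFire Ultra multiplex; p-ERK/total ERK ratio as readout, IC50 from 4-parameter logistic fit.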

[2] = target: T1, Biotinylated KRAS G12C protein (Homo sapiens, UniProt P01116, C118S/C51S/C80L/G12C); assay: SOS-catalyzed nucleotide exchange assay; type: biochemical; details: apparent potency; preincubation time of 60 minutes prior to addition of SOS
T1 construct: 183 amino acids; biotin on K10
T1 sequence (P01116 with tags, fused parts or gaps isoform P01116-2 G12C/C51S/C80L/C118S): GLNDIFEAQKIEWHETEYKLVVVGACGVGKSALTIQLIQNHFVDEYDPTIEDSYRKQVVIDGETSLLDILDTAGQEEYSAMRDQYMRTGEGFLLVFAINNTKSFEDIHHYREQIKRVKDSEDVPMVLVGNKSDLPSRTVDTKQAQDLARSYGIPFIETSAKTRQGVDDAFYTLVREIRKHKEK

[3] = Homo sapiens, NCI-H358, 2 h, NCI-H358 cells, 2 hour incubation, ratio of p-Erk vs total Erk, read-out: IC50

IC50 [1, 3] [nM]	IC50 [2] [nM]	IC50 ([1]; NCI-H358 cells, 2 hour incubation, ratio of p-Erk vs total Erk, read-out: IC50) [nM]	SMILES	IC50 ([1]; Homo sapiens, NCI-H358, 2 h) [nM]
57	2.2		C=CC(=O)N1CCN(c2cc(C(=O)N[C@H](C)CN3CC(C)(O)C3)nc3c2CCN(c2cccc4cccc(C)c24)C3)C[C@@H]1CC#N [Compound 70, 4-((S)-4-acryloyl-3-(cyanomethyl)piperazin-1-yl)-N-((R)-1-(3-hydroxy-3-methylazetidin-1-yl)propan-2-yl)-7-(8-methylnaphthalen-1-yl)-5,6,7,8-tetrahydro-1,7-naphthyridine-2-carboxamide]	
3550	180		C=CC(=O)N1CCN(c2c(C)c(C(=O)N[C@H](C)CN(C)C)nc3c2CCN(c2cccc4cccc(C)c24)C3)C[C@@H]1CC#N (racemic) [Compound 85, 4-((S)-4-acryloyl-3-(cyanomethyl)piperazin-1-yl)-N—((R)-1-(dimethylamino)propan-2-yl)-3-methyl-7-(8-methylnaphthalen-1-yl)-5,6,7,8-tetrahydro-1,7-naphthyridine-2-carboxamide]	
1040	6.2		C=CC(=O)N1CCN(c2cc(C(=O)NC[C@H]3CCCN3)nc3c2CCN(c2cccc4cccc(C)c24)C3)C[C@@H]1CC#N [Compound 98, 4-((S)-4-acryloyl-3-(cyanomethyl)piperazin-1-yl)-7-(8-methylnaphthalen-1-yl)-N-(((R)-pyrrolidin-2-yl)methyl)-5,6,7,8-tetrahydro-1,7-naphthyridine-2-carboxamide]	
7200	20		C=CC(=O)N1CCN(c2cc(C(=O)NCCC3(N)CCCCC3)nc3c2CCN(c2cccc4cccc(C)c24)C3)C[C@@H]1CC#N [Compound 92, (S)-4-(4-acryloyl-3-(cyanomethyl)piperazin-1-yl)-N-(2-(1-aminocyclohexyl)ethyl)-7-(8-methylnaphthalen-1-yl)-5,6,7,8-tetrahydro-1,7-naphthyridine-2-carboxamide]	
2890	29		C=CC(=O)N1CCN(c2cc(C(=O)N[C@H](C)CN3CC(F)(F)C3)nc3c2CCN(c2cccc4cccc(C)c24)C3)C[C@@H]1CC#N [Compound 68, 4-((S)-4-acryloyl-3-(cyanomethyl)piperazin-1-yl)-N—((R)-1-(3,3-difluoroazetidin-1-yl)propan-2-yl)-7-(8-methylnaphthalen-1-yl)-5,6,7,8-tetrahydro-1,7-naphthyridine-2-carboxamide]	
	5.4	45	C=CC(=O)N1CCN(c2cc(C(=O)NC(C)CN3CCC(C)(O)C3)nc3c2CCN(c2cccc4cccc(C)c24)C3)C[C@@H]1CC#N (single isomer, unassigned) [Compound 74, 4-((S)-4-acryloyl-3-(cyanomethyl)piperazin-1-yl)-N-((S or R)-1-((R or S)-3-hydroxy-3-methylpyrrolidin-1-yl)propan-2-yl)-7-(8-methylnaphthalen-1-yl)-5,6,7,8-tetrahydro-1,7-naphthyridine-2-carboxamide]	
5240	33		C=CC(=O)N1CCN(c2cc(C(=O)NCC3CCCNC3)nc3c2CCN(c2cccc4cccc(C)c24)C3)C[C@@H]1CC#N (mixture of isomers) [Compound 106, 4-((S)-4-acryloyl-3-(cyanomethyl)piperazin-1-yl)-7-(8-methylnaphthalen-1-yl)-N-(((R)-piperidin-3-yl)methyl)-5,6,7,8-tetrahydro-1,7-naphthyridine-2-carboxamide, as a mixture with 4-((S)-4-acryloyl-3-(cyanomethyl)piperazin-1-yl)-7-(8-methylnaphthalen-1-yl)-N-(((S)-piperidin-3-yl)methyl)-5,6,7,8-tetrahydro-1,7-naphthyridine-2-carboxamide]	

SMILES	IC50 [1, 3] [nM]	IC50 [2] [nM]	IC50 ([1]; NCI-H358 cells, 2 hour incubation, ratio of p-Erk vs total Erk, read-out: IC50) [nM]	IC50 ([1]; Homo sapiens, NCI-H358, 2 h) [nM]
C=CC(=O)N1CCN(c2cc(C(=O)N3CCC[C@@H]3CN3CCCC3)nc3c2CCN(c2cccc4cccc(C)c24)C3)C[C@@H]1CC#N [Compound 63, 2-((S)-1-acryloyl-4-(7-(8-methylnaphthalen-1-yl)-2-((R)-2-(pyrrolidin-1-ylmethyl)pyrrolidine-1-carbonyl)-5,6,7,8-tetrahydro-1,7-naphthyridin-4-yl)piperazin-2-yl)acetonitrile]		8		427
